Reference: US11957783B2, “Topical immunosensitizers to treat viral and fungal infections” (Squarex, LLC, priority 2018, dated 2024)
Marks after values point to notes of the source that are not given here.

Test system: peripheral blood mononuclear cells (PBMC)
Assay: Cytokine and immune-function gene expression of PBMC in vitro (qRT-PCR, 41 immune-related genes)
Format: cell-based, human
Description: After a screening visit at which blood was drawn to test for IgG antibody against HSV-1 and subjects were interviewed for inclusion/exclusion criteria, selected subjects returned for blood draws on day 1. After the blood draw on day 1, subjects in group A only were dosed with SADBE. A petrolatum donut was applied with a cotton swab to form about a 1 cm diameter donut on skin on the inner aspect of the upper arm. Then a separate cotton swab was dipped in a 2% SADBE solution (w/v) in DMSO, and the swab was then used to apply about 10-20 mg of solution over about a 1 cm diameter circle within the petrolatum donut. Immediately after application, the application site was covered with TEGADERM. Subjects were advised to remove the TEGADERM and rinse and wipe the spot three hours later. The group A subjects then returned for blood draws on days 15 and 57 and were queried about adverse events on those dates.
PBMC were isolated using SepMate PBMC isolation tubes (Stem Cell Technologies, Vancouver, Canada) and Ficoll-Paque according to the manufacturer's instructions. PBMC were isolated and suspended in negative control medium at 2 million cells/ml. PBMC suspension (100 μL) was added to 100 μL of medium in quadruplicate in 96-well plates. The plates were prepared in advance and stored at −70° C. The wells were in five different conditions in quadruplicate with these final concentrations after addition of the 100 μL of PBMC suspension in negative control medium. • 1. Negative control in medium (RPMI with glutamine and pen/strep, supplemented with 10% human A/B serum). • 2. Medium plus 16 μg/ml protein from heat-inactivated HSV-1-infected Vero cell extracts. • 3. Medium plus heat-inactivated HSV-1 cell-free virus at a final 7.5 million pfu/ml. • 4. Medium plus Candida cell extract. (Greer item number M15A50, 20,000 pnu/ml allergenic extract mixed molds Candida albicans, was diluted 1/50 into medium). • 5. Positive control, medium plus 10 μg/ml concanavalin A.
Two plates were created for each subject at each collection point. One plate was incubated for 2 days at 37° C. in a humidified 5% CO2 atmosphere and then RNA was isolated from the pooled contents of the 4 wells of a given condition for a specific patient, and the RNA was stored at −70° C. and subsequently used for quantitative real time PCR analysis of gene expression of 41 immune-related genes.
As noted above, after 2 days of growth of the PBMC in a 37° C. humidified 5% CO2 incubator in a 96-well plate, four wells of a single condition (negative control, positive control, heat-inactivated HSV-1, HSV-1-infected cell extracts, or Candida extract) with cells from a single subject (200 μL in each well) were pooled, and the RNA was immediately isolated with Trizol reagent and chloroform by Qiagen RNeasy MiniElute clean up kit Qiagen cat #74204, according to manufacturer's instructions into a final volume of 13 μL, and then flash frozen on powdered dry ice, and stored at −70° C. in aliquots of 3 μL for RNA quantification and 10 μL for PCR analysis.
RNA was preamplified with the Qiagen RT2 PreAMP cDNA synthesis kit (Ref. 330451) and custom RT2 PreAmp primer mix (Ref. 330141) starting with about 50 ng RNA according to the procedure of RT preamp cDNA synthesis handbook date March 2011, pages 17-20. The amplification reactions (final 120 μL) were frozen at −70° C. and used for qPCR analysis the next day.
qPCR was done with the Qiagen RT PCR profiler gene analysis kit (catalog number 330451) using RT2 Sybr Green Rox qPCR Mastermix (24) (Part 330523) and Custom RT2 PCR array plates (Ref. 330171). For this 675 μL 2×RT2 SYBR green mastermix, 51 μL pre-AMP synthesis reaction, and 623 μL RNase free water were mixed, and then 25 μL of the mixture was added to 48 wells on the left or right half of the custom PCR plate. The PCR instrument was Applied Biosystems 7900HT fast real time PCR. […]

[1] = PBMC + Candida extract, group A day 57 vs day 1 (pre-dose), one topical 2% SADBE dose
[2] = PBMC + HSV-1-infected cell extracts (CE), group A day 57 vs day 1 (pre-dose), one topical 2% SADBE dose
[3] = PBMC + heat-killed HSV-1 virus, group A day 57 vs day 1 (pre-dose), one topical 2% SADBE dose

For `CCCCOc1c(OCCCC)c(=O)c1=O` [SADBE, 3,4-Dibutoxy-3-cyclobutene-1,2-dione], the “ratio of absolute expression in A57 vs. A1: FOXP3” value (“ratio … FOXP3” for short) [1] was 2.01, the “ratio of absolute expression in A57 vs. A1: GATA3” value (from here on “ratio … GATA3”) [1] was 0.28 and the “ratio of absolute expression in A57 vs. A1: ICAM1” value (from here on “ratio … ICAM1”) [1] was 1.27. For the same molecule, the “ratio of absolute expression in A57 vs. A1: IFNA1” value (from here on “ratio … IFNA1”) [1] was 2.13, the “ratio of absolute expression in A57 vs. A1: IFNB1” value (from here on “ratio … IFNB1”) [1] was 0.93 and the “ratio of absolute expression in A57 vs. A1: IFNG” value (from here on “ratio … in A57 vs. A1: IFNG”) [1] was 8.54. For the same molecule, the “ratio of absolute expression in A57 vs. A1: IL1B” value (from here on “ratio … IL1B”) [1] was 1.73, the “ratio of absolute expression in A57 vs. A1: IL1R1” value (“ratio … IL1R1” for short) [1] was 0.9 and the “ratio of absolute expression in A57 vs. A1: IL1RN” value (from here on “ratio … IL1RN”) [1] was 1.91. The “ratio of absolute expression in A57 vs. A1: IL2” value (from here on “ratio … IL2”) [1] was 6.31, the “ratio of absolute expression in A57 vs. A1: IL4” value (“ratio … IL4” below) [1] was 1.52 and the “ratio of absolute expression in A57 vs. A1: IL5” value (shortened to “ratio … IL5”) [1] was 1.1. For the same molecule, the “ratio of absolute expression in A57 vs. A1: IL8” value (“ratio … IL8” for short) [1] was 1.89, the “ratio of absolute expression in A57 vs. A1: IL10” value (“ratio … IL10” below) [1] was 1.12 and the “ratio of absolute expression in A57 vs. A1: IL12A” value (“ratio … IL12A” below) [1] was 1.64. For the same molecule, the “ratio of absolute expression in A57 vs. A1: IL12B” value (“ratio … IL12B” for short) [1] was 3.61, the “ratio of absolute expression in A57 vs. A1: IL13” value (from here on “ratio … IL13”) [1] was 4.28 and the “ratio of absolute expression in A57 vs. A1: IL15” value (“ratio … IL15” for short) [1] was 2.18. The “ratio of absolute expression in A57 vs. A1: IL16” value (“ratio … IL16” for short) [1] was 0.81, the “ratio of absolute expression in A57 vs. A1: JAK2” value (“ratio … JAK2” for short) [1] was 1.68 and the “ratio of absolute expression in A57 vs. A1: LTA” value (“ratio … LTA” for short) [1] was 1.94. The “ratio of absolute expression in A57 vs. A1: LYZ” value (“ratio … LYZ” below) [1] was 0.93, the “ratio of absolute expression in A57 vs. A1: MX1” value (shortened to “ratio … MX1”) [1] was 1.34 and the “ratio of absolute expression in A57 vs. A1: NOD1” value (“ratio … NOD1” for short) [1] was 1.18. The “ratio of absolute expression in A57 vs. A1: SPP1” value (“ratio … SPP1” for short) [1] was 7.34, the “ratio of absolute expression in A57 vs. A1: STAT1” value (“ratio … STAT1” for short) [1] was 3.36 and the “ratio of absolute expression in A57 vs. A1: STAT4” value (from here on “ratio … STAT4”) [1] was 1.76. For the same molecule, the “ratio of absolute expression in A57 vs. A1: TNF” value [1] was 1.22, the “ratio of absolute expression in A57 vs. A1: TNFSF10” value (from here on “ratio … TNFSF10”) [1] was 1.52 and the “ratio of absolute expression in A57 vs. A1: TNFSF13B” value [1] was 1.62. The “ratio of absolute expression in A57 vs. A1: CCL2” value [2] was 1.21, the “ratio of absolute expression in A57 vs. A1: CCL3” value [2] was 4.6 and the “ratio of absolute expression in A57 vs. A1: CCL7” value [2] was 0.75. For the same molecule, the “ratio of absolute expression in A57 vs. A1: CCR5” value [2] was 0.93, the “ratio of absolute expression in A57 vs. A1: CD80” value [2] was 0.93 and the “ratio of absolute expression in A57 vs. A1: CXCL2” value [2] was 2.79. The “ratio of absolute expression in A57 vs. A1: CXCL5” value [2] was 6.03, the “ratio of absolute expression in A57 vs. A1: CXCL9” value [2] was 0.91 and the “ratio of absolute expression in A57 vs. A1: CXCL10” value [2] was 0.49. For the same molecule, the “ratio of absolute expression in A57 vs. A1: CXCL11” value [2] was 0.31, the “ratio of absolute expression in A57 vs. A1: DDX58” value [2] was 0.94 and the “ratio … FOXP3” value [2] was 1.11. For the same molecule, the “ratio … GATA3” value [2] was 2.6, the “ratio … ICAM1” value [2] was 0.77 and the “ratio … IFNA1” value [2] was 1.29. For the same molecule, the “ratio … IFNB1” value [2] was 0.65, the “ratio … in A57 vs. A1: IFNG” value [2] was 5.72 and the “ratio … IL1B” value [2] was 21.45. The “ratio … IL1R1” value [2] was 1.11, the “ratio … IL1RN” value [2] was 0.79 and the “ratio … IL2” value [2] was 2.48. The “ratio … IL4” value [2] was 0.89, the “ratio … IL5” value [2] was 0.5 and the “ratio … IL8” value [2] was 3.86. The “ratio … IL10” value [2] was 3.29, the “ratio … IL12A” value [2] was 0.89 and the “ratio … IL12B” value [2] was 0.23. The “ratio … IL13” value [2] was 2.28, the “ratio … IL15” value [2] was 0.87 and the “ratio … IL16” value [2] was 1.02. For the same molecule, the “ratio … JAK2” value [2] was 0.82, the “ratio … LTA” value [2] was 0.99 and the “ratio … LYZ” value [2] was 0.29. For the same molecule, the “ratio … MX1” value [2] was 0.66, the “ratio … NOD1” value [2] was 0.89 and the “ratio … SPP1” value [2] was 5.38. For the same molecule, the “ratio … STAT1” value [2] was 0.91, the “ratio … STAT4” value [2] was 1.01 and the “ratio of absolute expression in A57 vs. A1: TNF” value [2] was 1.2. For the same molecule, the “ratio … TNFSF10” value [2] was 0.88, the “ratio of absolute expression in A57 vs. A1: TNFSF1313” value [2] was 1.07 and the “ratio of absolute expression in A57 vs. A1: CCL2” value [3] was 1.71. The “ratio of absolute expression in A57 vs. A1: CCL3” value [3] was 3.73, the “ratio of absolute expression in A57 vs. A1: CCL7” value [3] was 1.81 and the “ratio of absolute expression in A57 vs. A1: CCR5” value [3] was 1.35. The “ratio of absolute expression in A57 vs. A1: CD80” value [3] was 1.25, the “ratio of absolute expression in A57 vs. A1: CXCL2” value [3] was 1.58 and the “ratio of absolute expression in A57 vs. A1: CXCL5” value [3] was 2.52. For the same molecule, the “ratio of absolute expression in A57 vs. A1: CXCL9” value [3] was 2.5, the “ratio of absolute expression in A57 vs. A1: CXCL10” value [3] was 1 and the “ratio of absolute expression in A57 vs. A1: CXCL11” value [3] was 0.4. For the same molecule, the “ratio of absolute expression in A57 vs. A1: DDX58” value [3] was 0.95, the “ratio … FOXP3” value [3] was 2.46 and the “ratio … GATA3” value [3] was 0.32. The “ratio … ICAM1” value [3] was 1.07, the “ratio … IFNA1” value [3] was 1.34 and the “ratio … IFNB1” value [3] was 0.87. For the same molecule, the “ratio … in A57 vs. A1: IFNG” value [3] was 11.01, the “ratio … IL1B” value [3] was 5.09 and the “ratio … IL1R1” value [3] was 0.97. The “ratio … IL1RN” value [3] was 1.48, the “ratio … IL2” value [3] was 2.11 and the “ratio … IL4” value [3] was 1.32. For the same molecule, the “ratio … IL5” value [3] was 0.56, the “ratio … IL8” value [3] was 3.3 and the “ratio … IL10” value [3] was 2.29. For the same molecule, the “ratio … IL12A” value [3] was 1.48, the “ratio … IL12B” value [3] was 2.08 and the “ratio … IL13” value [3] was 3.02. For the same molecule, the “ratio … IL15” value [3] was 1.54, the “ratio … IL16” value [3] was 0.82 and the “ratio … JAK2” value [3] was 1.26. The “ratio … LTA” value [3] was 1.84, the “ratio … LYZ” value [3] was 0.53 and the “ratio … MX1” value [3] was 0.66. The “ratio … NOD1” value [3] was 1.14, the “ratio … SPP1” value [3] was 15.29 and the “ratio … STAT1” value [3] was 1.41. For the same molecule, the “ratio … STAT4” value [3] was 1.69, the “ratio of absolute expression in A57 vs. A1: TNF” value [3] was 1.19 and the “ratio … TNFSF10” value [3] was 1.01. For the same molecule, the “ratio of absolute expression in A57 vs. A1: TNFSF13B” value [3] was 1.23, the “Ratio of absolute IFNG gene expression in group A vs. Groups B + C pooled” value (Virus, group A day 57 after SADBE) was 3.359* and the “IFNG expression in group A on day 57 than day 1” value (all three stimuli, PBMC) was “at least 8 fold”.
